PubChem BioAssay (NCI)
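96-well plates; 48 h exposure; 5 concentrations. Endpoints by linear interpolation between flanking doses. Not reached: highest tested concentration assigned. Here, GI50 denotes the concentration required for 50% inhibition of growth. Definition used: TGI = concentration required for complete inhibition of growth.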

How the values were obtained:
Experiment in all cases: inhibition of tumour cell growth, NCI panel, 48 h
A549 NSCLC = test system: A549 NSCLC
HCT-15 colon = test system: HCT-15 colon
HL-60(TB) leukemia = test system: HL-60(TB) leukemia
HT29 colon = test system: HT29 colon
NCI-H226 lung = test system: NCI-H226 lung
RXF 393 renal = test system: RXF 393 renal
SF-295 CNS = test system: SF-295 CNS
SNB-75 CNS = test system: SNB-75 CNS
SW-620 colon = test system: SW-620 colon
UACC-62 melanoma = test system: UACC-62 melanoma

Row | Structure (SMILES) | TGI (A549 NSCLC) [µM] | TGI (HCT-15 colon) [µM] | TGI (HL-60(TB) leukemia) [µM] | TGI (HT29 colon) [µM] | TGI (NCI-H226 lung) [µM] | TGI (RXF 393 renal) [µM] | TGI (SF-295 CNS) [µM] | TGI (SNB-75 CNS) [µM] | TGI (SW-620 colon) [µM] | TGI (UACC-62 melanoma) [µM] | GI50 (A549 NSCLC) [µM] | GI50 (HCT-15 colon) [µM] | GI50 (HL-60(TB) leukemia) [µM] | GI50 (HT29 colon) [µM] | GI50 (NCI-H226 lung) [µM] | GI50 (RXF 393 renal) [µM] | GI50 (SF-295 CNS) [µM] | GI50 (SNB-75 CNS) [µM] | GI50 (SW-620 colon) [µM] | GI50 (UACC-62 melanoma) [µM]
1 | CC1=C(C(=O)NCc2ccccc2)C(c2ccc([N+](=O)[O-])cc2)C(C(=O)NCc2ccccc2)=C(C)N1 | > 100 | > 100 | 49.3 | 33.9 | > 100 | 86.5 | > 100 | > 100 | > 100 | 64.6 | – | – | – | – | – | – | – | – | – | –
2 | CCCCCCCCCc1cc[n+](CC(=O)c2ccc([N+](=O)[O-])cc2)cc1 | 3.13 | 2.57 | 3.64 | 1.29 | 2.15 | 2.15 | 2.79 | 2.36 | 1.63 | 2.54 | 1.64 | 1.19 | 1.7 | 0.313 | 0.535 | 0.754 | 1.44 | 1.12 | 0.403 | 1.23
3 | CS(=O)(=O)CCNCc1ccc(-c2ccc3ncnc(Nc4ccc(OCc5cccc(F)c5)c(C(F)(F)F)c4)c3c2)o1 | 9.27 | 9.12 | 13.4 | 8.92 | 6.75 | 6.15 | 9.43 | 7.77 | 7.93 | 7.48 | 4.23 | 4.02 | 5.65 | 4.54 | 3.44 | 2.85 | 4.4 | 3.52 | 4.15 | 3.94
4 | CS(=O)(=O)Nc1cccc(-c2cc(-c3ccccc3Cl)c(C#N)c(N)n2)c1 | 16.6 | 15.8 | 13.4 | 11.9 | 32.3 | 2.27 | 12.9 | 2.44 | 16.7 | 15.5 | 0.655 | 0.402 | 0.361 | 0.389 | 10.2 | 0.328 | 0.411 | 0.239 | 0.425 | 0.51
5 | O/N=C1/C(=C/c2ccc(Oc3ccccc3)cc2)CCCC1C(NO)c1ccc(Oc2ccccc2)cc1 (stereo not given) | > 100 | > 100 | 25.6 | 30.5 | > 100 | 52.2 | > 100 | > 100 | > 100 | > 100 | – | – | – | – | – | – | – | – | – | –
6 | Cc1cc(O)c(C2=NN(c3ccc(S(N)(=O)=O)cc3)C(c3ccc(N(C)C)cc3)C2)c(C)c1Cl (stereo not given) | 43.5 | 32 | 50 | 25.8 | 29.4 | 59.1 | 44.4 | 42.2 | 37.8 | 25.8 | 14.7 | 14.2 | 20.3 | 10.9 | 13.4 | 24.5 | 19.2 | 17 | 18.4 | 9.92
7 | CCn1cc(-c2ccnc3[nH]ccc23)c(-c2cccc(NC(=O)Nc3ccc(OCc4ccccc4)cc3)c2)n1 | > 25 | > 25 | 17.2 | > 20.3 | > 25 | 7.88 | > 25 | > 25 | > 25 | > 25 | 2.85 | 6.28 | 4.23 | 4.18 | > 25 | 1.28 | 4.55 | 4.35 | 20.2 | 5.89
